According to EP4624465A1, “COMPOUND SERVING AS DDR1 KINASE INHIBITOR, AND MEDICINE” (Nippon Shinyaku Co., Ltd., priority 2022, dated 2024):

Target: DDR1 kinase (Homo sapiens, UniProt Q08345)
Assay: Evaluation of DDR1 kinase inhibition (LANCE Ultra TR-FRET kinase assay)
Type: biochemical
Set-up: purchased Carna Biosciences 08-113
Conditions: DDR1 protein 0.5 nM, LANCE Ultra ULight-poly GAT substrate, 2 hours at room temperature, duplicate; read-out: DDR-1 IC50

Sequence of DDR1 kinase (Q08345 19-876 isoform Q08345-2 limits assumed): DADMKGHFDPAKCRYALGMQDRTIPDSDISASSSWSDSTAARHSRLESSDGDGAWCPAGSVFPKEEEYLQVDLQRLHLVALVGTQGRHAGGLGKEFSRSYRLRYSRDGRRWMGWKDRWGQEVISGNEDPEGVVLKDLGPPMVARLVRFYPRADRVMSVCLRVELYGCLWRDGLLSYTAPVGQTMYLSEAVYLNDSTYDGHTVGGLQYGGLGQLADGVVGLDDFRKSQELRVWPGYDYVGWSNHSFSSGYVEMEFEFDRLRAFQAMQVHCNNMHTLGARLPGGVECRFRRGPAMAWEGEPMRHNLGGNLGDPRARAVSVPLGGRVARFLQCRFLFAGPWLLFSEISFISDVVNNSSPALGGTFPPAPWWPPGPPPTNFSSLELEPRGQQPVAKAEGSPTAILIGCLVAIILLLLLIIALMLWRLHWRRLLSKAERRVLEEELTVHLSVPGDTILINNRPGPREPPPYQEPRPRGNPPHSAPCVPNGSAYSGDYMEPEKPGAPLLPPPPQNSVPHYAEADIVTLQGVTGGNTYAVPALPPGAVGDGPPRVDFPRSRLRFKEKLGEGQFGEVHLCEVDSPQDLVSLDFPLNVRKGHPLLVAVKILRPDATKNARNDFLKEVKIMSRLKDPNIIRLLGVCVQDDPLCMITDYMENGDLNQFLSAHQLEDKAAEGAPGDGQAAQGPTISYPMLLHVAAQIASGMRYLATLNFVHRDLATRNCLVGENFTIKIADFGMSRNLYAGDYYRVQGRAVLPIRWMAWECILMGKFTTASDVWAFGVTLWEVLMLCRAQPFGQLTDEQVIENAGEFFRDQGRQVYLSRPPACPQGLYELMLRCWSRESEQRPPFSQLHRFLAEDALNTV

## CO[C@@H]1CCN(C(=O)Cn2nc(C3CN(C(=O)c4cc(N)ncc4F)C3)c3ccccc32)C1 [Compound E-231, 2-{3-[1-(2-amino-5-fluoropyridine-4-carbonyl)azetidin-3-yl]-1H-indazol-1-yl}-1-1(3R)-3-methoxypyrrolidin-1-yllethan-1-one]
  IC50: 30 nM

## Nc1cc(C(=O)N2CC(c3nn(CC(=O)N4CCOC[C@H]4C(F)(F)F)c4cc(F)cc(F)c34)C2)ccn1 [Compound E-123, 2-{3-[1-(2-aminopyridine-4-carbonyl)azetidin-3-yl]-4,6-difluoro-1H-indazol-1-yl}-1-[(3S)-3-(trifluoromethyl)morpholin-4-yl]ethan-1-one]
  IC50: 8.8 nM

## Nc1cc(C(=O)N2CC(c3nn(CC(=O)N4CCC[C@H]4COC(F)(F)F)c4cncc(F)c34)C2)c(F)cn1 [Compound E-58, 2-{3-[1-(2-amino-5-fluoropyridine-4-carbonyl)azetidin-3-yl]-4-fluoro-1H-pyrazolo(3,4-c]pyridin-1-yl}-1-[(2S)-2-[(trifluoromethoxy)methyl]pyrrolidin-1-yl]ethan-1-one di-p-toluenesulfonate]
  IC50: 4.4 nM

## Nc1cc(C(=O)N2CC(c3nn(CC(=O)NC(C4CC4)C4CC4)c4ccccc34)C2)ccn1 [Compound E-224, 2-{3-[1-(2-aminopyridine-4-carbonyl)azetidin-3-yl]-1H-indazol-1-yl}-N-(dicyclopropylmethyl)acetamide]
  IC50: 18 nM

## Nc1cc(C(=O)N2CC(c3nn(CC(=O)N4CCCC(C(F)(F)F)C4)c4ccccc34)C2)c(F)cn1 (stereo not drawn) [Compound E-259, 2-{3-[1-(2-amino-5-fluoropyridine-4-carbonyl)azetidin-3-yl}-1H-indazol-1-yl}-1-[3-(trifluoromethyl)piperidin-1-yl]ethan-1-one]
  IC50: 2.1 nM

## COc1cnccc1C(=O)N1CC(c2nn(CC(=O)N3CCC[C@H]3C(F)(F)F)c3cc(F)cc(F)c23)C1 [Compound E-133, 2-{4,6-difluoro-3-[1-(3-methoxypyridine-4-carbonyl)azetidin-3-yl)-1H-indazol-1-yl}-1-[(28)-2-(trifluoromethyl)pyrrolidin-1-yl]ethan-1-one]
  IC50: 23 nM

## Nc1cc(C(=O)N2CC(c3nn(Cc4noc(-c5ccccc5F)n4)c4cccc(F)c34)C2)ccn1 [Compound E-148, 4-[3-(4-fluoro-1-i[5-(2-fluorophenyl)-1,2,4-oxadiazol-3-yl]methyl}-1H-indazol-3-yl)azetidine-1-carbonyllpyridin-2-amine]
  IC50: 1.9 nM

## O=C(c1ccc2[nH]ncc2n1)N1CC(c2nn(CC(=O)N3CCC[C@H]3C(F)(F)F)c3cc(F)cc(F)c23)C1 [Compound E-141]
  IC50: 5 nM

## Nc1cc(C(=O)N2CC(c3nn(CC(=O)N4CCC[C@@H]4CO)c4cc(F)cc(F)c34)C2)ccn1 [Compound E-36, 2-{3-[1-(2-aminopyridine-4-carbonyl)azetidin-3-yl]-4,6-difluoro-1H-indazol-1-yl}-1-[(2R)-2-(hydroxymethyl)pyrrolidin-1-yl]ethan-1-one]
  IC50: 270 nM

## CC1(c2nn(CC(=O)N3CCC[C@H]3C(F)(F)F)c3ccccc23)CN(C(=O)c2cc(N)ncc2F)C1 [Compound E-271, 2-{3-[1-(2-amino-5-fluoropyridine-4-carbonyl)-3-methylazetidin-3-yl]-1H-indazol-1-yl}-1-[(2S)-2-(trifluoromethyl)pyrrolidin-1-yl]ethan-1-one]
  IC50: 4 nM

## Nc1cc(C(=O)N2CC(c3nn(Cc4noc(C(F)(F)F)n4)c4ccccc34)C2)ccn1 [Compound E-217, 4-[3-(1-{[5-(trifluoromethyl)-1,2.4-oxadiazol-3-yl]methyl}-1 H-indazol-3-yl)azetidine-1-carbonyl]pyridin-2-amine]
  IC50: 32 nM

## Nc1cc(C(=O)N2CC(c3nn(Cc4nc(-c5ccncc5)no4)c4cccc(F)c34)C2)ccn1 [Compound E-138, 4-[3-(4-fluoro-1-{(S-(pyridin-4-yl)-1,2,4-oxadiazol-5-yl]methyl}-1H-indazol-3-yl)azetidine-1-carbonyl]pyridin-2-amine]
  IC50: 50 nM
